# Results published in the Kinase Knowledgebase extract (Sharma et al. 2016).
# pIC50: −log10 of the molar value.
# Molecular target: MAPK14 (UniProt Q16539)
# Assay: Inhibition of MAPK14 Kinase Activity
# MAPK14, sequence (Q16539 whole entry, looked up): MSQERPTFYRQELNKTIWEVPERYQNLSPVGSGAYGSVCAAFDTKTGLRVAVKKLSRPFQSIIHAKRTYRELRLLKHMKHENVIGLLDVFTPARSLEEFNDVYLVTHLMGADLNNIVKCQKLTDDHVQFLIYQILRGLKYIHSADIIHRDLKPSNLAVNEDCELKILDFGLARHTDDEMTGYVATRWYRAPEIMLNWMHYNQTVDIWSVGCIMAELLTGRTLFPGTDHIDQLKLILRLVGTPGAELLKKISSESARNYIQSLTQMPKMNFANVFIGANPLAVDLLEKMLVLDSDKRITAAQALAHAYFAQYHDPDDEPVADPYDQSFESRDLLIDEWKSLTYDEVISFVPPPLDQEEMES
row,SMILES,pIC50
1,CC(C)S(=O)(=O)n1c(N)nc2ccc(-c3nc(-c4ccsc4)[nH]c3-c3ccc(F)cc3)cc21,≥ 5.30
2,C#Cc1nc(-c2ccccc2)c(-c2ccc3nc(N)n(S(=O)(=O)C(C)C)c3c2)n1C1CCCCC1,≥ 5.30
3,CC(C)S(=O)(=O)n1c(N)nc2ccc(-c3nc(CNCCN4CCCCC4)[nH]c3-c3ccccc3)cc21,≥ 5.30
4,CC(C)S(=O)(=O)n1c(N)nc2ccc(-c3c(-c4ccccc4F)nc(-c4ccc(Cl)cc4)n3C3CC3)cc21,≥ 5.30
5,Cc1ccc(-c2[nH]c(-c3ccc(F)cc3)nc2-c2ccc3nc(N)n(S(=O)(=O)C(C)C)c3c2)cc1,≥ 5.30
6,CC(C)S(=O)(=O)n1c(N)nc2ccc(-c3nc(-c4ccc(N)cc4F)[nH]c3-c3ccccc3)cc21,≥ 5.30
7,CC(C)S(=O)(=O)n1c(N)nc2ccc(-c3c(-c4ccccc4)ncn3C3CCC(O)CC3)cc21 (centres undefined),≥ 5.30
8,CC(C)S(=O)(=O)n1c(N)nc2ccc(-c3c(-c4ccc(F)cc4F)ncn3C)cc21,≥ 5.30
9,CC(C)S(=O)(=O)n1c(N)nc2ccc(-c3nc(-c4ccccc4C(F)(F)F)[nH]c3-c3ccccc3)cc21,≥ 5.30
10,CC(C)S(=O)(=O)n1c(N)nc2ccc(-c3c(-c4ccc(F)cc4)ncn3C3CCN(C(=O)OC(C)(C)C)CC3)cc21,≥ 5.30
11,CC(=O)Nc1ccc(-c2nc(-c3ccc4nc(N)n(S(=O)(=O)C(C)C)c4c3)c(-c3ccccc3)[nH]2)cc1,≥ 5.30
12,CC(C)S(=O)(=O)n1c(N)nc2ccc(-c3c(-c4ccc(F)cc4)ncn3C)cc21,≥ 5.30
13,COc1ccc(Cn2c(CO)nc(-c3ccccc3)c2-c2ccc3nc(N)n(S(=O)(=O)C(C)C)c3c2)cc1,≥ 5.30
14,CC(C)S(=O)(=O)n1c(N)nc2ccc(-c3nc(-c4ccc(F)cc4F)[nH]c3-c3ccc(F)cc3F)cc21,≥ 5.30
15,CC(C)S(=O)(=O)n1c(N)nc2ccc(-c3c(-c4ccccc4)nc4n3CCCC4)cc21,≥ 5.30
16,Cc1cccn2c(-c3ccc4nc(N)n(S(=O)(=O)C(C)C)c4c3)c(-c3ccccc3)nc12,≥ 5.30
17,CC(C)S(=O)(=O)n1c(N)nc2ccc(-c3nc(-c4cccc(OCCN5CCOCC5)c4)[nH]c3-c3ccccc3)cc21,≥ 5.30
18,CC(C)S(=O)(=O)n1c(N)nc2ccc(-c3c(-c4ccccc4)ncn3C3CCN(C)CC3)cc21,≥ 5.30
19,CC(C)S(=O)(=O)n1c(N)nc2ccc(-c3nc(C4CCNCC4)[nH]c3-c3ccccc3)cc21,≥ 5.30
20,CC(C)S(=O)(=O)n1c(N)nc2ccc(-c3nc(-c4ccccc4OC(F)(F)F)[nH]c3-c3ccccc3)cc21,≥ 5.30
21,CC(C)S(=O)(=O)n1c(N)nc2ccc(-c3c(-c4ccccc4F)nc(Br)n3C3CCCCC3)cc21,≥ 5.30

row,SMILES,pIC50
1,CC(C)S(=O)(=O)n1c(N)nc2ccc(-c3nc(CCC(=O)O)[nH]c3-c3ccccc3)cc21,≥ 5.30
2,CC(C)n1cnc(-c2ccccc2)c1-c1ccc2nc(N)n(S(=O)(=O)C(C)C)c2c1,≥ 5.30
3,CC(C)S(=O)(=O)n1c(N)nc2ccc(-c3c(-c4ccc(F)cc4)ncn3C3CCNCC3)cc21,≥ 5.30
4,CC(C)S(=O)(=O)n1c(N)nc2ccc(-c3nc(C4CCN(C(=O)OC(C)(C)C)CC4)[nH]c3-c3ccccc3)cc21,≥ 5.30
5,CC(C)S(=O)(=O)n1c(N)nc2ccc(-c3c(-c4ccccc4)ncn3[C@H]3CC[C@H](O)CC3)cc21,≥ 5.30
6,CC(C)S(=O)(=O)n1c(N)nc2ccc(-c3c(-c4ccccc4)ncn3CCO)cc21,≥ 5.30
7,CC(C)S(=O)(=O)n1c(N)nc2ccc(-c3c(-c4ccccc4)ncn3Cc3ccccn3)cc21,≥ 5.30
8,CC(C)S(=O)(=O)n1c(N)nc2ccc(-c3nc(C4CCN(CCO)CC4)[nH]c3-c3ccccc3)cc21,≥ 5.30
9,CC(C)S(=O)(=O)n1c(N)nc2ccc(-c3nc(C4CCN(C(=O)OCc5ccccc5)CC4)[nH]c3-c3ccccc3)cc21,≥ 5.30
10,CC(C)N1CCC(n2cnc(-c3ccccc3)c2-c2ccc3nc(N)n(S(=O)(=O)C(C)C)c3c2)CC1,≥ 5.30
11,CC(C)S(=O)(=O)n1c(N)nc2ccc(-c3nn[nH]c3-c3ccccc3)cc21,≥ 5.30
12,CC(C)S(=O)(=O)n1c(N)nc2ccc(-c3nc(-c4ccccc4)[nH]c3-c3ccccc3)cc21,≥ 5.30
13,CC(C)S(=O)(=O)n1c(N)nc2ccc(-c3nc[nH]c3-c3ccc(F)cc3)cc21,≥ 5.30
14,CC(C)S(=O)(=O)n1c(N)nc2ccc(-c3c(-c4ccc(F)cc4)ncn3C3CCN(Cc4ccccc4)CC3)cc21,≥ 5.30
15,CC(C)S(=O)(=O)n1c(N)nc2ccc(-c3nc(-c4c(F)cc(OCCN5CCCC5)cc4F)[nH]c3-c3ccccc3)cc21,≥ 5.30
16,Cc1ccccc1-c1[nH]c(-c2ccc(F)cc2)nc1-c1ccc2nc(N)n(S(=O)(=O)C(C)C)c2c1,≥ 5.30
17,CC(C)S(=O)(=O)n1c(N)nc2ccc(-c3c(-c4ccccc4)ncn3[C@@H]3CCCC[C@H]3CO)cc21,≥ 5.30
18,CC(C)S(=O)(=O)n1c(N)nc2ccc(-c3nc(CN(C)C)[nH]c3-c3ccccc3)cc21,≥ 5.30
19,CC(C)S(=O)(=O)n1c(N)nc2ccc(-c3nc(CN(C)CCN(C)C)[nH]c3-c3ccccc3)cc21,≥ 5.30
20,Cc1cccc(-c2[nH]c(C)nc2-c2ccc3nc(N)n(S(=O)(=O)C(C)C)c3c2)c1,≥ 5.30
21,CC(C)S(=O)(=O)n1c(N)nc2ccc(-c3sc(-c4ccccc4)nc3-c3ccccc3)cc21,≥ 5.30

row,SMILES,pIC50
1,CC(C)S(=O)(=O)n1c(N)nc2ccc(-c3c(-c4ccccc4)ncn3CCNC(=O)OC(C)(C)C)cc21,≥ 5.30
2,CC(C)S(=O)(=O)n1c(N)nc2ccc(-c3nc(-c4ccc(OCCN5CCCC5)c(F)c4)[nH]c3-c3ccccc3)cc21,≥ 5.30
3,CC(C)S(=O)(=O)n1c(N)nc2ccc(-c3nc(-c4cccc(Cl)c4)[nH]c3-c3ccccc3)cc21,≥ 5.30
4,CC(C)S(=O)(=O)n1c(N)nc2ccc(-c3nc(C4CCCCC4)[nH]c3-c3ccccc3)cc21,≥ 5.30
5,CC(C)S(=O)(=O)n1c(N)nc2ccc(-c3nc(-c4ccc(N(C)C)cc4)[nH]c3-c3ccccc3)cc21,≥ 5.30
6,CC(C)S(=O)(=O)n1c(N)nc2ccc(-c3c(-c4ccccc4)ncn3[C@@H]3CCCC[C@H]3O)cc21,≥ 5.30
7,CC(C)S(=O)(=O)n1c(N)nc2ccc(C3C(c4ccccc4)N=C4C=CC(Cl)=CN43)cc21 (centres undefined),≥ 5.30
8,CC(C)S(=O)(=O)n1c(N)nc2ccc(-c3nc(-c4ccc(Cl)cc4F)[nH]c3-c3ccccc3)cc21,≥ 5.30
9,CC(C)S(=O)(=O)n1c(N)nc2ccc(-c3nc(-c4c(Cl)cccc4Cl)[nH]c3-c3ccccc3)cc21,≥ 5.30
10,CC(C)S(=O)(=O)n1c(N)nc2ccc(-c3[nH]n(-c4ccc(C(F)(F)F)cc4)c(=O)c3-c3ccccc3)cc21,≥ 5.30
11,CC(C)S(=O)(=O)n1c(N)nc2ccc(-c3c(-c4ccccc4)ncn3[C@@H](C)CO)cc21,≥ 5.30
12,Nc1nc2ccc(-c3c(-c4ccccc4)ncn3C3CCCCC3)cc2s1,≥ 5.30
13,CCc1ccc(-c2nc(-c3ccc4nc(N)n(S(=O)(=O)C(C)C)c4c3)c(-c3ccccc3)[nH]2)s1,≥ 5.30
14,CCOC(=O)/C=C/c1nc(-c2ccc3nc(N)n(S(=O)(=O)C(C)C)c3c2)c(-c2ccccc2)[nH]1,≥ 5.30
15,CCOC(=O)N1CCC(n2cnc(-c3ccccc3F)c2-c2ccc3nc(N)n(S(=O)(=O)C(C)C)c3c2)CC1,≥ 5.30
16,CC(C)S(=O)(=O)n1c(N)nc2ccc(-c3c(-c4ccccc4F)nc(-c4c[nH]nn4)n3C3CC3)cc21,≥ 5.30
17,CC(C)S(=O)(=O)n1c(N)nc2ccc(-c3nc(-c4ccc(Cl)cc4)[nH]c3-c3ccccc3)cc21,≥ 5.30
18,CC(C)S(=O)(=O)n1c(N)nc2ccc(-c3c(-c4ccccc4)nc(-c4c(F)cccc4F)n3C)cc21,≥ 5.30
19,Cc1ccccc1-c1nc(-c2ccc3nc(N)n(S(=O)(=O)C(C)C)c3c2)c(-c2ccccc2)[nH]1,≥ 5.30
20,CC(C)S(=O)(=O)n1c(N)nc2ccc(-c3c(-c4ccccc4)ncn3[C@H](C)CO)cc21,≥ 5.30
21,CC(C)S(=O)(=O)n1c(N)nc2ccc(-c3nc(-c4ccccc4SC(F)(F)F)[nH]c3-c3ccccc3)cc21,≥ 5.30

row,SMILES,pIC50
1,CC(C)S(=O)(=O)n1c(N)nc2ccc(-c3c(-c4ccccc4)ncn3[C@@H](CO)c3ccccc3)cc21,≥ 5.30
2,CNc1ccc(-c2nc(-c3ccc4nc(N)n(S(=O)(=O)C(C)C)c4c3)c(-c3ccccc3)[nH]2)c(F)c1,≥ 5.30
3,COc1ccc(Cn2cnc(-c3ccccc3)c2-c2ccc3nc(N)n(S(=O)(=O)C(C)C)c3c2)cc1,≥ 5.30
4,CC(C)S(=O)(=O)n1c(N)nc2ccc(-c3nc(-c4ccc([N+](=O)[O-])s4)[nH]c3-c3ccccc3)cc21,≥ 5.30
5,CC(C)S(=O)(=O)n1c(N)nc2ccc(-c3c(-c4ccccc4)ncn3-c3ccc([N+](=O)[O-])cc3)cc21,≥ 5.30
6,CC(C)S(=O)(=O)n1c(N)nc2ccc(-c3c(-c4ccccc4)ncn3C3CC(C)(C)NC(C)(C)C3)cc21,≥ 5.30
7,CC(C)S(=O)(=O)n1c(N)nc2ccc(-c3[nH]n(-c4ccccc4)c(=O)c3-c3ccccc3)cc21,≥ 5.30
8,C#Cc1nc(-c2ccccc2F)c(-c2ccc3nc(N)n(S(=O)(=O)C(C)C)c3c2)n1C1CC1,≥ 5.30
9,CC(C)S(=O)(=O)n1c(N)nc2ccc(-c3c(-c4ccccc4)ncn3CC3CC3)cc21,≥ 5.30
10,CC(C)S(=O)(=O)n1c(N)nc2ccc(-c3nc(-c4cccs4)[nH]c3-c3cccc(C(F)(F)F)c3)cc21,≥ 5.30
11,Cc1nc(-c2ccc3nc(N)n(S(=O)(=O)C(C)C)c3c2)c(-c2ccc(F)cc2)[nH]1,≥ 5.30
12,Nc1nc2ccc(-c3nc(-c4c(F)cccc4F)[nH]c3-c3ccccc3)cc2n1S(=O)(=O)C1CCCC1,≥ 5.30
13,CC(C)S(=O)(=O)n1c(N)nc2ccc(-c3c(-c4ccccc4)ncn3[C@H](CO)CC3CCCCC3)cc21,≥ 5.30
14,COC(=O)CCn1cnc(-c2ccccc2)c1-c1ccc2nc(N)n(S(=O)(=O)C(C)C)c2c1,≥ 5.30
15,CC(C)S(=O)(=O)n1c(N)nc2ccc(-c3nc[nH]c3-c3ccc(F)cc3F)cc21,≥ 5.30
16,CC(C)S(=O)(=O)n1c(N)nc2ccc(-c3c(-c4ccccc4)ncn3C3CCCCC3)cc21,≥ 5.30
17,CC(C)S(=O)(=O)n1c(N)nc2ccc(-c3nc(-c4cccc(C(F)(F)F)c4)[nH]c3-c3ccccc3)cc21,≥ 5.30
18,CC(C)S(=O)(=O)n1c(N)nc2ccc(-c3c(-c4ccc(F)cc4)ncn3CC3CC3)cc21,≥ 5.30
19,CC(C)S(=O)(=O)n1c(N)nc2ccc(-c3c(-c4ccccc4)nn4c3CCC4)cc21,≥ 5.30
20,Nc1nc2ccc(-c3nc[nH]c3-c3ccccc3)cc2[nH]1,≥ 5.30
21,CC(C)S(=O)(=O)n1c(N)nc2ccc(-c3c(-c4ccccc4F)nc(Br)n3C3CC3)cc21,≥ 5.30
